# In US8680159B2, “Bradykinin 1 receptor modulating compounds” (Gruenenthal GmbH, priority 2010, dated 2014):
# Target: T1, human B1R receptor (CHO K1 cells stably transfected with the human B1R gene) (Homo sapiens, UniProt P46663)
# T1 construct: expressed in transfected cells; host or cells: CHO K1 cells (Chinese hamster ovary), stably transfected
# T1 sequence (P46663 1-353): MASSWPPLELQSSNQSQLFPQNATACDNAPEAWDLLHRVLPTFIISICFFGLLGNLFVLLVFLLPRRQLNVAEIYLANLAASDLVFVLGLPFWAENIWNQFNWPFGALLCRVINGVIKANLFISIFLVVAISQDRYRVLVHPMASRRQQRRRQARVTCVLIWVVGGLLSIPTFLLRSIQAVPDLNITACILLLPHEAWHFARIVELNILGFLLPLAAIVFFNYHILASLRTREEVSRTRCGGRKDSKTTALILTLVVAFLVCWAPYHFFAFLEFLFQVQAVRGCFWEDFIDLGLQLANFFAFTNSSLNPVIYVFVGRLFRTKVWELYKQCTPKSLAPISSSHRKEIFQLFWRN
# Test: Functional study on the bradykinin receptor 1 (B1R), Ca2+ fluorescence (Fluo-4) FLIPR/Novostar assay, hB1R cells
# Type: cell-based
# Conditions: CHO-K1, read-out: % Inhibition (h-B1R) at 10 μM
# Description: The agonistic or antagonistic action of substances can be quantified on the bradykinin receptor 1 (B1R) of the species human and rat using ectopically expressing cell lines (CHO K1 cells) and with the aid of a Ca^2+-sensitive dye (Fluo-4) using a fluorescent imaging plate reader (FLIPR). The indication in % activation is based on the Ca^2+ signal after addition of Lys-Des-Arg^9-bradykinin (0.5 nM) or Des-Arg^9-bradykinin (100 nM). Antagonists lead to suppression of the Ca^2+ influx after the addition of the agonist. % Inhibition compared with the maximum achievable inhibition is indicated.
# The agonistic or antagonistic action of substances can be determined on the bradykinin receptor 1 (B1R) of the species human and rat using the following assay. According to this assay, the increase in intracellular Ca^2+ following administration of a B1R agonist is quantified with the aid of a Ca^2+-sensitive dye (Fluo-4 type, Molecular Probes Europe BV, Leiden, Netherlands) using a Fluorescent Imaging Plate Reader (FLIPR, Molecular Devices, Sunnyvale, USA) and/or using a Novostar (BMG Labtech GmbH, Offenburg, Germany).
# Chinese hamster ovary cells (CHO K1 cells) which have been stably transfected with the human B1R gene (hB1R cells) or with the B1R gene of the rat (rB1R cells) are used. For functional studies, the cells are plated out on black 96-well plates having a clear base (BD Biosciences, Heidelberg, Germany or Greiner, Frickenhausen, Germany) in a density of 20,000-35,000 cells/well. The cells are left overnight at 37° C. and with 5% CO2 in culture medium (hB1R cells: Nutrient Mixture Ham's F12, Gibco Invitrogen GmbH, Karlsruhe, Germany or DMEM, Sigma-Aldrich, Taufkirchen, Germany; rB1R cells: D-MEM/F12, Gibco Invitrogen GmbH, Karlsruhe, Germany), with 10 vol. % FBS (fetal bovine serum, Gibco Invitrogen GmbH, Karlsruhe, Germany or PAN Biotech GmbH, Aidenbach, Germany). On the following day, the cells are loaded for 60 minutes at 37° C. with 2.13 μM Fluo-4 (Molecular Probes Europe BV, Leiden, Netherlands) in HBSS buffer (Hank's buffered saline solution, Gibco Invitrogen GmbH, Karlsruhe, Germany) […] (Sigma-Aldrich, Taufkirchen, Germany) and 10 mM HEPES (Sigma-Aldrich, Taufkirchen, Germany). The plates are then washed twice with HBSS buffer, and HBSS buffer additionally containing 0.1% BSA (bovine serum albumin; Sigma-Aldrich, Taufkirchen, Germany), 5.6 mM glucose and 0.05% gelatin (Merck KGaA, Darmstadt, Germany) is added to the plates. After incubation for a further 20 minutes at room temperature, the plates are inserted into the FLIPR or Novostar for Ca^2+ measurement. Alternatively, washing is carried out with buffer A (15 mM HEPES, 80 mM NaCl, 5 mM KCl, 1.2 mM CaCl2, 0.7 mM MgSO4, 2 g/l glucose, 2.5 mM probenecid) followed by loading with buffer A with added 2.5 μM Fluo-4 and 0.025% Pluronic F127 (Sigma-Aldrich, Taufkirchen, Germany). The cells are then washed twice with buffer A and incubated for 30 minutes at room temperature with buffer A additionally containing 0.05% BSA and 0.05% gelatin and are then inserted into the FLIPR or Novostar for Ca^2+ measurement. The Ca^2+-dependent fluorescence is measured before and after the addition of substances (λex=488 nm, λem=540 nm). Quantification is carried out by measuring the highest fluorescence intensity (FC, fluorescence counts) over time.
# The FLIPR protocol consists of 2 substance additions, which are pipetted in the FLIPR. In the case of measurements using the Novostar, only the second substance addition is pipetted in the device. Both devices measure the fluorescence intensity over time. Test substances (10 μM) are first pipetted onto the cells and the intracellular Ca^2+ increase is compared with the control (hB1R: Lys-Des-Arg^9-bradykinin>=50 nM; rB1R: Des-Arg^9-bradykinin>=1 μM). This gives the % activation, based on the Ca^2+ signal after addition of Lys-Des-Arg^9-bradykinin (>=50 nM) or Des-Arg^9-bradykinin (>=1 μM). […]
row,inhibition at 10 µM,Structure (SMILES)
1,99%,"CC(C)CC(=O)NC1CCc2ccc(C(=O)N(C)C3CCN(c4ccc5cnccc5c4)CC3)cc21 (centres unmarked) [CC_H-79, N-(1-Isoquinolin-6-yl-piperidin-4-yl)-N-methyl-3-(3-methyl-butanoylamino)-2,3-dihydro-1H-indene-5-carboxylic acid amide]"
2,98%,"CN(C(=O)c1ccc2c(c1)C(NC(=O)c1sccc1Cl)CC2)C1CCN(c2ccc3cnccc3c2)CC1 (centres unmarked) [CC_H-80, 3-Chloro-N-[6-[(1-isoquinolin-6-yl-piperidin-4-yl)-methyl-carbamoyl]-2,3-dihydro-1H-inden-1-yl]-thiophene-2-carboxylic acid amide]"
3,100%,"Cc1cc(N2CCC(N(C)C(=O)c3ccc4c(c3)C(N(C)C(=O)C3CCCCC3)CC4)CC2)cc(C)n1 (centres unmarked) [CC_H-81, 3-(Cyclohexanecarbonyl-methyl-amino)-N-[1-(2,6-dimethyl-pyridin-4-yl)-piperidin-4-yl]-N-methyl-2,3-dihydro-1H-indene-5-carboxylic acid amide]"
4,100%,"Cc1cc(N2CCC(N(C)C(=O)c3ccc4c(c3)C(N(C)C(=O)c3cc(F)ccc3Cl)CC4)CC2)cc(C)n1 (centres unmarked) [CC_H-82, 3-[(2-Chloro-5-fluoro-benzoyl)-methyl-amino]-N-[1-(2,6-dimethyl-pyridin-4-yl)-piperidin-4-yl]-N-methyl-2,3-dihydro-1H-indene-5-carboxylic acid amide]"
5,100%,"Cc1cc(N2CCC(N(C)C(=O)c3ccc4c(c3)C(N(C)C(=O)c3cccc(Cl)c3Cl)CC4)CC2)cc(C)n1 (centres unmarked) [CC_H-83, 3-[(2,3-Dichloro-benzoyl)-methyl-amino]-N-[1-(2,6-dimethyl-pyridin-4-yl)-piperidin-4-yl]-N-methyl-2,3-dihydro-1H-indene-5-carboxylic acid amide]"
6,100%,"Cc1cc(N2CCC(N(C)C(=O)c3ccc4c(c3)C(N(C)C(=O)CCC3CCCC3)CC4)CC2)cc(C)n1 (centres unmarked) [CC_H-84, 3-(3-Cyclopentyl-propanoyl-methyl-amino)-N-[1-(2,6-dimethyl-pyridin-4-yl)-piperidin-4-yl]-N-methyl-2,3-dihydro-1H-indene-5-carboxylic acid amide]"
7,99%,"Cc1cccc(C)c1C(=O)NC1CC(C)(C)c2ccc(C(=O)N(C)C3CCN(c4ccncc4)CC3)cc21 (centres unmarked) [CC_H-85, 3-[(2,6-Dimethyl-benzoyl)amino]-N,1,1-trimethyl-N-(1-pyridin-4-yl-piperidin-4-yl)-2,3-dihydro-indene-5-carboxylic acid amide]"
8,95%,"Cc1cc(N2CCC(N(C)C(=O)c3ccc4c(c3)C(N(C)C(=O)c3cnccc3C(F)(F)F)CC4)CC2)cc(C)n1 (centres unmarked) [CC_H-86, N-[6-[[1-(2,6-Dimethyl-pyridin-4-yl)-piperidin-4-yl]-methyl-carbamoyl]-2,3-dihydro-1H-inden-1-yl]-N-methyl-4-(trifluoromethyl)-pyridine-3-carboxylic acid amide]"
9,100%,"Cc1cc(N2CCC(N(C)C(=O)c3ccc4c(c3)C(N(C)C(=O)c3ccccc3Cl)CC4)CC2)cc(C)n1 (centres unmarked) [CC_H-87, 3-[(2-Chloro-benzoyl)-methyl-amino]-N-[1-(2,6-dimethyl-pyridin-4-yl)-piperidin-4-yl]-N-methyl-2,3-dihydro-1H-indene-5-carboxylic acid amide]"
10,100%,"Cc1cc(N2CCC(N(C)C(=O)c3ccc4c(c3)C(N(C)C(=O)c3sccc3Cl)CC4)CC2)cc(C)n1 (centres unmarked) [CC_H-88, 3-Chloro-N-[6-[[1-(2,6-dimethyl-pyridin-4-yl)-piperidin-4-yl]-methyl-carbamoyl]-2,3-dihydro-1H-inden-1-yl]-N-methyl-thiophene-2-carboxylic acid amide]"
11,100%,"CN(C(=O)c1ccc2c(c1)C(NS(=O)(=O)Cc1ccccc1C(F)(F)F)CC2(C)C)C1CCN(c2ccncc2)CC1 (centres unmarked) [CC_H-89, N,1,1-Trimethyl-N-(1-pyridin-4-yl-piperidin-4-yl)-3-[[[2-(trifluoromethyl)-phenyl]-methylsulfonyl]amino]-2,3-dihydro-indene-5-carboxylic acid amide]"
